Assay results reported in publication PMC11840788, “3,3′-Diindolylmethane (DIM): A Molecular Scaffold for Inhibition of WWP1 and WWP2, Members of the NEDD4 Family HECT E3 Ligases” (ACS Omega, 2025).
“And” between values parts separate entries of the source, which are not always exact repeats. Equal entries are not always repeated.

How the values were obtained:
WWP1 = WWP1 (Homo sapiens, UniProt Q9H0M0); set-up: method as in PMID 31097636, doi:10.1016/j.phytol.2023.01.002; conditions: cited from earlier work
[1] = molecular target: T1, WWP1 (His-tagged WWP1-L34H) (Homo sapiens, UniProt Q9H0M0); assay: in vitro autoubiquitination assay (single shot and dose dependency), WWP1; format: biochemical; conditions: for inhibition of WWP1 (in words): autoubiquitination assay; for IC50: nonlinear regression of RA against log concentration, 1 mM to 10 nM, 1% DMSO; for WWP1 RA (%) relative activity: single shot, compound at 1 mM (1% DMSO), standardized to 0 and 100% controls
T1 construct: WWP1- 2,3-linker-WW3-WW4-HECT (WWP1-L34H); made in house; host or cells: E. coli BL21-CodonPlus RP (plasmid pET32a-WWP1-L34H, gift of Dr Wenyu Wen)
Protocol: (§1) A single shot in vitro autoubiquitination assay was performed for I3C, DIM and each of the derivatives against WWP1 and WWP2 using a compound concentration of 1 mM (1% DMSO) (SI Figure S3). […] These active compounds were then subjected to a detailed dose dependency analysis leading to IC50 values. This strategy has previously been employed to screen other WWP1/WWP2 small molecule inhibitors as well as used to assess I3C inhibition toward NEDD4-1.[29],[32] In this way, compounds displaying a relative activity (RA) of less than 50% in the single shot assay were further screened for dose-dependency using a logarithmic concentration range from 10 nM to 1 mM (1% DMSO) (SI Figure S4). […] These were confirmed by counter assays to remove compounds possibly interacting with other enzymes in the assay or interfering with the assay directly (SI Table S1).
(§2) Cell lysate containing His-tagged WWP1-L34H or GST-tagged WWP2-FL proteins were incubated on either 96-well Clear Pierce glutathione or nickel-coated plates for 1 h. Reaction mixtures of either 3 ng/well GST-Uba1 and 15 ng/well UbcH7 or 10 ng/well His-Uba1 and 150 ng/well His-UbcH7 were incubated together in 25 mM Tris pH 8.0, 100 mM NaCl, 4 mM MgCl2 containing 60 ng/well FLAG-ubiquitin and 1.25 mM ATP for 40 min. A prior 1% BSA plate blocking step is required for nickel-coated plates. After plate washing, 2 μL of the compound was added at the desired concentration (1% DMSO) followed by 18 μL of the reaction mixture. This was then incubated for 2 h with 0 and 100% controls before 100 μL of anti-FLAG M2-Peroxidase HRP (1:10,000 PBST) was added to each well and incubated for 1 h. Finally, 100 μL of 1 × TMB substrate solution (Invitrogen) was added to each well and incubated for up to 10 min until sufficient blue color change was observed. To stop the reaction, 100 μL of 1 M HCl was added. For the counter assay, 3 ng/well GST-Uba1 and 200 ng/well UbcH7 were incubated with the other reaction mixture components for 1 h before incubating onto plates for a further 1 h. All other steps were followed. The plates were washed three times with PBST (and 15 mM Imidazole) between each step. Quantification was measured by absorbance read at 450 nm. All assay optimizations were as previously reported.[32] IC50 nonlinear regression curves were calculated in GraphPad v10.2 (Prism). […]
(§3) Auto-ubiquitination Assay
(§4) Cell lysate containing His-tagged WWP1-L34H or GST-tagged WWP2-FL proteins were incubated on either 96-well Clear Pierce glutathione 2 or nickel-coated plates for 1 hour. Reaction mixtures of either 3 ng/well GST-Uba1 and 15 ng/well UbcH7 or 10 ng/well His-Uba1 and 150 ng/well His-UbcH7 were incubated together in 25 mM Tris pH 8.0, 100 mM NaCl, 4 mM MgCl2 containing 60 ng/well FLAG-ubiquitin and 1.25 mM ATP for 40 minutes. A prior 1 % BSA plate blocking step is required for nickel-coated plates. After plate washing, 2 μL of the compound was added at the desired concentration (1 % DMSO) followed by 18 μL of the reaction mixture. This was then incubated for 2 hours with 0% and 100% controls before 100 μL of anti-FLAG M2-Peroxidase HRP (1: 10,000 PBST) was added to each well and incubated for 1 hour.
(§5) Finally, 100 μL of 1 × TMB substrate solution (Invitrogen) was added to each well and […]
(§6) incubated for up to 10 minutes until sufficient blue colour change was observed. To stop the reaction, 100 μL of 1 M HCl was added. For the counter assay, 3 ng/well GST-Uba1 and 200 ng/well UbcH7 were incubated with the other reaction mixture components for 1 hour before incubating onto plates for a further 1 hour. All other steps were followed.
(§7) The plates were washed three times with PBST (and 15 mM Imidazole) between each step. Quantification was measured by absorbance read at 450 nm. All assay optimisations have been previously reported by Watt and colleagues3.
(§8) Relative activity (RA) was determined by comparing the autoubiquitination of the WWP ligases in the presence of each compound, i.e TMB absorbance (450 nm), to the […]

[2] = molecular target: T2, WWP2 (GST-tagged WWP2-FL) (Homo sapiens, UniProt O00308); assay: in vitro autoubiquitination assay (single shot and dose dependency), WWP2; format: biochemical; conditions: for inhibition of WWP2 (in words): autoubiquitination assay; for IC50: nonlinear regression of RA against log concentration, 1 mM to 10 nM, 1% DMSO; for WWP2 RA (%) relative activity: single shot, compound at 1 mM (1% DMSO), standardized to 0 and 100% controls
T2 construct: Full- length WWP2 (WWP2-FL); made in house; host or cells: E. coli BL21-CodonPlus RP (plasmid pGEX2T-WWP2-FL, Dr Andrew Chantry's Lab)
Protocol: as §1, §2, §3, §4, §5, §6, §7, §8

UbcH7 = molecular target: T3, UbcH7 (Homo sapiens, UniProt P68036); assay: counter auto-ubiquitination screen; format: biochemical; conditions: counter assay, GST-Uba1 and UbcH7 without E3
T3 construct: GST (N, cleaved yes); made in house; host or cells: E. coli BL21 (DE3) (pGEX4T-1-UbcH7a and pGEX4T-1-hUba1, gifts of Dr Arthur L Haas's Lab)
Protocol: as §1
Cell lysate containing His-tagged WWP1-L34H or GST-tagged WWP2-FL proteins were incubated on either 96-well Clear Pierce glutathione or nickel-coated plates for 1 h. Reaction mixtures of either 3 ng/well GST-Uba1 and 15 ng/well UbcH7 or 10 ng/well His-Uba1 and 150 ng/well His-UbcH7 were incubated together in 25 mM Tris pH 8.0, 100 mM NaCl, 4 mM MgCl2 containing 60 ng/well FLAG-ubiquitin and 1.25 mM ATP for 40 min. A prior 1% BSA plate blocking step is required for nickel-coated plates. […] Quantification was measured by absorbance read at 450 nm. […] IC50 nonlinear regression curves were calculated in GraphPad v10.2 (Prism). […]
The plates were washed three times with PBST (and 15 mM Imidazole) between each step. Quantification was measured by absorbance read at 450 nm. […]
Relative activity (RA) was determined by comparing the autoubiquitination of the WWP ligases in the presence of each compound, i.e TMB absorbance (450 nm), to the 100 % controls (1 % DMSO only), further normalising against background absorbance using 0 % controls (no E3 loaded). […]
IC50 non-linear regression curves were calculated in GraphPad v10.2 (Prism). […]

[3] = set-up: method as in PMID 17699787; conditions: cited from earlier work
NEDD4-1 = tested on: NEDD4-1; set-up: method as in PMID 27979631; conditions: cited from earlier work

T3 sequence (P68036 whole entry): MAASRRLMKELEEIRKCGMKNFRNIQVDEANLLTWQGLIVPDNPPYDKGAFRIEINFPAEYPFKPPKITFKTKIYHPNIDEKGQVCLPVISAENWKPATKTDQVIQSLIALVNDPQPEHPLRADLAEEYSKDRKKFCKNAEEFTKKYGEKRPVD
T2 sequence (O00308 whole entry): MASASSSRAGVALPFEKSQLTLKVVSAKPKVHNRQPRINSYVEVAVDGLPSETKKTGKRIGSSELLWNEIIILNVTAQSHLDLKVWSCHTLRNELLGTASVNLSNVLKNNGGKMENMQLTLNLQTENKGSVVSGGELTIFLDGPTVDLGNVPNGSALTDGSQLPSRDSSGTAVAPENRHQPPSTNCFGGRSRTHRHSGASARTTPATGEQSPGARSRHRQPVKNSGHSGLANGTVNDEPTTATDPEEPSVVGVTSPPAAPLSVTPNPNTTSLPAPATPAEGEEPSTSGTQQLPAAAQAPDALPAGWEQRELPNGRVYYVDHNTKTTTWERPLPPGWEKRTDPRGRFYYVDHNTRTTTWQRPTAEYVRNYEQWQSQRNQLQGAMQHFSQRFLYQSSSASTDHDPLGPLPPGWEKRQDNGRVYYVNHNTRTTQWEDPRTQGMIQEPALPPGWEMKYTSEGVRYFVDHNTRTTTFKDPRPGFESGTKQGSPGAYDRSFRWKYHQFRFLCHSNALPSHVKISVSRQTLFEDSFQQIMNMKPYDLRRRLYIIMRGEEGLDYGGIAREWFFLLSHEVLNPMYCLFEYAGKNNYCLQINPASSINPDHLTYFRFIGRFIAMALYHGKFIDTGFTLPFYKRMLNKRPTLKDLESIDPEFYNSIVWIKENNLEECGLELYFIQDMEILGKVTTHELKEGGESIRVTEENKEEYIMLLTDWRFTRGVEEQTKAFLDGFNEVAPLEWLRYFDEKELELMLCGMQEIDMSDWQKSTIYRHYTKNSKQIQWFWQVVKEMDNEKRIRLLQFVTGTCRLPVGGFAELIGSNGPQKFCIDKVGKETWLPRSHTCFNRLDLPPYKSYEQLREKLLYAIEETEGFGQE
T1 sequence (Q9H0M0 415-922, stated change not applied): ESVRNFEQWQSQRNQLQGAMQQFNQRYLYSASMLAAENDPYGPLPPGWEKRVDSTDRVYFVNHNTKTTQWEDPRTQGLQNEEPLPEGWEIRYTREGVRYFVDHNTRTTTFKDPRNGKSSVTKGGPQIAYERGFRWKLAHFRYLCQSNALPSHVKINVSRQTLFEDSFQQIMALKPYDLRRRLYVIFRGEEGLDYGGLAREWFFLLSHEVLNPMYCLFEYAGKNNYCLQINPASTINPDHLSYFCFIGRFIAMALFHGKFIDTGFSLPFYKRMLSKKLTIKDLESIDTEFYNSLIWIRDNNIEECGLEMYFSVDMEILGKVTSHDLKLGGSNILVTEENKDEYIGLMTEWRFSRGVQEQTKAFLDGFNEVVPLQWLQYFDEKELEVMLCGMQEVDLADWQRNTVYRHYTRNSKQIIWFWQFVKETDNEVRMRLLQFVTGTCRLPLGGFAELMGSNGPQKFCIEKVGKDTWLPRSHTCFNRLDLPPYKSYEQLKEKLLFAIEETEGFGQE
Sequence of WWP1 (Q9H0M0 546-922 limits assumed): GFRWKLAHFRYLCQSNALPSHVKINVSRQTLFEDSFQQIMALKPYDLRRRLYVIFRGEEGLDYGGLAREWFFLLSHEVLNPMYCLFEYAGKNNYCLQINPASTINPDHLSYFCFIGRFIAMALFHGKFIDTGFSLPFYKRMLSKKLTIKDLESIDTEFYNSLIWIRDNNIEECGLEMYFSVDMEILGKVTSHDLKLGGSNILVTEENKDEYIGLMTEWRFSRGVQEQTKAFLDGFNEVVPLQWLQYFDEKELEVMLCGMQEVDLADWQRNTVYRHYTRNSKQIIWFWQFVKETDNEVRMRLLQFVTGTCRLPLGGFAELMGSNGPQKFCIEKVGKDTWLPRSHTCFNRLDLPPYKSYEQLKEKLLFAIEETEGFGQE

| SMILES | inhibition of WWP1 (in words) [1] | IC50 [1] [µM] | WWP1 RA (%) relative activity [1] [%] | inhibition of WWP2 (in words) [2] | IC50 [2] [µM] | WWP2 RA (%) relative activity [2] | UbcH7 Activity (%) (UbcH7) | IC50 (WWP1) [µM] | increase in antiproliferative properties relative to I3C [3] [fold] | IC50 (NEDD4-1) [µM] |
| --- | --- | --- | --- | --- | --- | --- | --- | --- | --- | --- |
| CCc1ccc(C=CC(=O)Nc2ccc(C(C)=O)cc2)o1 [Heclin] |  |  |  |  |  |  |  | 6.9 |  |  |
| Cc1ccc(S(=O)(=O)n2cc(CO)c3ccccc32)cc1 [Compound 15, N-(4-methylbenzenesulfonyl)indole-3-carbinol] | displayed inhibition | 218 | 11.4 | displayed inhibition | 224 | 39.2% | 86.3 ± 1.8 |  |  |  |
| O=[N+]([O-])c1cc(S(=O)(=O)n2cc(CO)c3ccccc32)ccc1Cl [OSU-A9] |  |  |  |  |  |  |  |  | 100 |  |

Second part, led by results:

| inhibition of WWP1 (in words) [1] | IC50 [1] [µM] | WWP1 RA (%) relative activity [1] [%] | inhibition of WWP2 (in words) [2] | IC50 [2] [µM] | WWP2 RA (%) relative activity [2] | UbcH7 Activity (%) (UbcH7) | SMILES | IC50 (WWP1) [µM] | increase in antiproliferative properties relative to I3C [3] [fold] | IC50 (NEDD4-1) [µM] |
| --- | --- | --- | --- | --- | --- | --- | --- | --- | --- | --- |
| displayed inhibition | 799 | 22.5 | displayed inhibition | 642 | 30.0% | 79.7 ± 1.5 | O=S(=O)(c1ccc(C(F)(F)F)cc1)n1cc(CO)c2ccccc21 [Compound 16, N-(4-trifluoromethylbenzenesulfonyl)indole-3-carbinol] |  |  |  |
| displayed inhibition | 111 | 17.2 |  |  | 62.2 ± 6.1% and 62.2% | 83.3 ± 2.0 | c1ccc2c(Cc3c[nH]c4ccccc34)c[nH]c2c1 [DIM, 3,3′-diindolylmethane] |  |  |  |
| no evidence of inhibition |  | 105.9 | no evidence of inhibition |  | 97.6% |  | OCc1cn(Cc2ccccc2)c2ccccc12 [Compound 13, N-benzylindole-3-carbinol] |  |  | 12.3 |
